Data set [1] concerns the target histone deacetylase (HeLa nuclear extracts). The experiment in a line: In vitro assay for inhibition of histone deacetylase. Particulars: [3H]acetylated histone H4 peptide substrate, 30 min. The class given is biochemical. How it is done:
The in vitro assay for inhibition of histone deacetylase (see example C.1) measures the inhibition of HDAC enzymatic activity obtained with the compounds of formula (I).
HeLa nuclear extracts (supplier: Biomol) were incubated at 60 μg/ml with 2×10^−8 M of radiolabeled peptide substrate. As a substrate for measuring HDAC activity a synthetic peptide, i.e. the amino acids 14-21 of histone H4, was used. The substrate is biotinylated at the NH2-terminal part with a 6-aminohexanoic acid spacer, and is protected at the COOH-terminal part by an amide group and specifically [^3H]acetylated at lysine 16. The substrate, biotin-(6-aminohexanoic)Gly-Ala-([^3H]-acetyl-Lys-Arg-His-Arg-Lys-Val-NH2), was added in a buffer containing 25 mM Hepes, 1 M sucrose, 0.1 mg/ml BSA and 0.01% Triton X-100 at pH 7.4. After 30 min the deacetylation reaction was terminated by the addition of HCl and acetic acid. (final concentration 0.035 mM and 3.8 mM respectively). After stopping the reaction, the free ^3H-acetate was extracted with ethylacetate. After mixing and centrifugation, the radioactivity in an aliquot of the upper (organic) phase was counted in a β-counter.
For each experiment, controls (containing HeLa nuclear extract and DMSO without compound), a blank incubation (containing DMSO but no HeLa nuclear extract or compound) and samples (containing compound dissolved in DMSO and HeLa nuclear extract) were run in parallel. […] The control sample represented 100% of substrate deactylation. For each sample the radioactivity was expressed as a percentage of the mean value of the controls. […] Herein the effects of test compounds are expressed as pIC50 (the negative log value of the IC50-value).

Data set [2] concerns A2780 ovarian carcinoma cells. The experiment in a line: Antiproliferative activity on A2780 cells (MTT). In kind it is cell-based. The conditions noted are these: Homo sapiens, 96 h, four days of incubation, read-out: Cellular activity pIC50 (converted). As for the experimental part:
Cellular activity of the compounds of formula (I) was determined on A2780 tumour cells using a […] assay for cell toxicity or survival (Mosmann Tim, Journal of Immunological Methods 65: 55-63, 1983)(see example C.2).
All compounds tested were dissolved in DMSO and further dilutions were made in culture medium. Final DMSO concentrations never exceeded 0.1% (v/v) in cell proliferation assays. Controls contained A2780 cells and DMSO without compound and blanks contained DMSO but no cells. MTT was dissolved at 5 mg/ml in PBS. A glycine buffer comprised of 0.1 M glycine and 0.1 M NaCl buffered to pH 10.5 with NaOH (1 N) was prepared (all reagents were from Merck).
The human A2780 ovarian carcinoma cells (a kind gift from Dr. T. C. Hamilton [Fox Chase Cancer Centre, Pennsylvania, USA]) were cultured in RPMI 1640 medium supplemented with 2 mM L-glutamine, 50 μg/ml gentamicin and 10% fetal calf serum. Cells were routinely kept as monolayer cultures at 37° C. in a humidified 5% CO2 atmosphere. Cells were passaged once a week using a trypsin/EDTA solution at a split ratio of 1:40. All media and supplements were obtained from Life Technologies. Cells were free of mycoplasma contamination as determined using the Gen-Probe Mycoplasma Tissue Culture kit (supplier: BioMérieux).
Cells were seeded in NUNC™ 96-well culture plates (Supplier: Life Technologies) and allowed to adhere to the plastic overnight. Densities used for plating were 1500 cells per well in a total volume of 200 μl medium. After cell adhesion to the plates, medium was changed and drugs and/or solvents were added to a final volume of 200 μl. Following four days of incubation, medium was replaced by 200 μl fresh medium and cell density and viability was assessed using an MTT-based assay. To each well, 25 μl MTT solution was added and the cells were further incubated for 2 hours at 37° C. The medium was then carefully aspirated and the blue MTT-formazan product was solubilized by addition of 25 μl glycine buffer followed by 100 μl of DMSO. […] Within an experiment, the results for each experimental condition are the mean of 3 replicate wells. For initial screening purposes, compounds were tested at a single fixed concentration of 10^−6 M. For active compounds, the experiments were repeated to establish full concentration-response curves. For each experiment, controls (containing no drug) and a blank incubation (containing no cells or drugs) were run in parallel. The blank value was subtracted from all control and sample values. For each sample, the mean value for cell growth (in absorbance units) was expressed as a percentage of the mean value for cell growth of the control. […] Herein the effects of test compounds are expressed as pIC50 (the negative log value of the IC50-value).

Data set [3] in a line: Kinetic solubility in aqueous media. In kind it is physicochemical. Particulars: aqueous buffer, kinetic from dmso stock; phosphate citrate buffer pH 7.4, turbidity by nephelometer; read-out: Solubility Score. As for the experimental part: Kinetic solubility in aqueous media measures the ability of a compound to stay in aqueous solution upon dilution (see example C.3).
DMSO-stock solutions are diluted with a single aqueous buffer solvent in 3 consecutive steps. For every dilution turbidity is measured with a nephelometer.
In the first dilution step, 10 μl of a concentrated stock-solution of the active compound, solubilized in DMSO (5 mM), was added to 100 μl phosphate citrate buffer pH 7.4 and mixed. In the second dilution step, an aliquot (20 μl) of the first dilution step was further dispensed in 100 μl phosphate citrate buffer pH 7.4 and mixed. Finally, in the third dilution step, a sample (20 μl) of the second dilution step was further diluted in 100 μl phosphate citrate buffer pH 7.4 and mixed. All dilutions were performed in 96-well plates. Immediately after the last dilution step the turbidity of the three consecutive dilution steps were measured with a nephelometer. Dilution was done in triplicate for each compound to exclude occasional errors. Based on the turbidity measurements a ranking is performed into 3 classes. Compounds with high solubility obtained a score of 3 and for this compounds the first dilution is clear. Compounds with medium solubility obtained a score of 2. For these compounds the first dilution is unclear and the second dilution is clear. […] The solubility of 6 compounds was measured.

Structures are written as SMILES. Converted amounts (≈) assume the structure as drawn.

From US8343988B2, “Inhibitors of histone deacetylase” (Janssen Pharmaceutica, N.V, priority 2002, dated 2013) come the findings set out here.

`O=C(NO)c1cnc(N2CCC(Cn3c(C(c4ccccc4)C4CCCC4)nc4cccc(F)c4c3=O)CC2)nc1` (centres unmarked) [compound 54]: in data set [1], the “Enzyme activity pIC50” value is recorded as 6.176.

For orientation: solubility means the concentration that dissolves in the medium under given conditions. Take `O=C(NO)c1cnc(N2CCN(Cc3ccc(-c4ccc(CN5CCOCC5)cc4)o3)CC2)nc1` [Co. No. 9]: the “Enzyme activity pIC50” value in data set [1] is 7.889. Besides, the IC50 in data set [2] is 97.9 nM. In addition, the solubility in data set [3] was above 454 µM. By melting point is commonly meant the temperature of the solid-liquid transition. In the case of `O=C(NO)c1cnc(N2CCC(N3CCN(S(=O)(=O)c4ccc5ccccc5c4)CC3)CC2)nc1` [Co. No. 4], the melting point stood at 230 °C. For the same molecule, the “Enzyme activity pIC50” value in data set [1] was 7.306. Moreover, the IC50 in data set [2] is 658 nM. Further, the solubility in data set [3] is above 454 µM. As for `O=C(NO)c1ccc(N2CCN(Cc3ccccc3)CC2)c([N+](=O)[O-])c1` [compound 24], the “Enzyme activity pIC50” value in data set [1] is on record as below 5. `Cc1ccc2nc(-c3cc4ccccc4o3)n(CC3CCN(c4ncc(C(=O)NO)cn4)CC3)c(=O)c2c1` [compound 52]: the “Enzyme activity pIC50” value in data set [1] worked out at 7.235. The IC50 in data set [2] is 1170 nM. As for `O=C(NO)c1cnc(N2CCN(CCc3ccc4ccccc4c3)CC2)nc1` [Co. No. 7], the melting point worked out at 209 °C. In addition, the “Enzyme activity pIC50” value in data set [1] is 7.952. Besides, the IC50 in data set [2] is 444 nM. For the same molecule, the solubility in data set [3] was above 454 µM. Turning to `O=C(NO)c1ccc(N2CCN(c3ccc(C(F)(F)F)cc3)CC2)c([N+](=O)[O-])c1` [compound 26], the “Enzyme activity pIC50” value in data set [1] was above 5.

Turning to `O=C(NO)c1ccc(N2CCC(n3c(=O)[nH]c4ccccc43)CC2)c([N+](=O)[O-])c1` [compound 28], in data set [1], the “Enzyme activity pIC50” value was above 5. For `O=C(NO)c1ccc(CN2CCN(c3cccc4ccccc34)CC2)cc1` [compound 50], the “Enzyme activity pIC50” value in data set [1] was 5.206. Further, in data set [3], the solubility was in the range of 75.8 to 454 µM (≈ 27.4 to 164 µg/mL). As for `O=C(NO)c1ccc(N2CCN(c3ccc(Cl)cc3)CC2)c([N+](=O)[O-])c1` [compound 20], the “Enzyme activity pIC50” value in data set [1] is below 5. `O=C(NO)c1cnc(N2CCN(Cc3ccc4ccccc4c3)CC2)nc1` [Co. No. 6] showed a melting point above 260 °C. Moreover, the “Enzyme activity pIC50” value in data set [1] was 8.148. Further, in data set [2], the IC50 was 59.3 nM. Also, the solubility in data set [3] was above 454 µM. Regarding `CCC(C)n1nc(C)n(-c2ccc(N3CCCN(c4ccc(C(=O)NO)cc4)CC3)cc2)c1=O` (centres unmarked) [Co. No. 1], the “Enzyme activity pIC50” value in data set [1] amounted to 5.121. For the same molecule, the IC50 in data set [2] was 15000 nM. The solubility in data set [3] is above 454 µM. Molecule `O=C(NO)c1cnc(N2CCN(Cc3ccc(-c4ccc(CN5CCOCC5)cc4)o3)CC2)nc1` (hydrate or solvate) [Co. No. 9] came in with a melting point of 140 °C. Take `O=C(NO)c1ccc(N2CCN(c3ccc(Cl)c(Cl)c3)CC2)c([N+](=O)[O-])c1` [compound 17]: in data set [1], the “Enzyme activity pIC50” value is on record as above 5. Turning to `O=C(NO)c1cc([N+](=O)[O-])ccc1N1CCC(Cc2ccccc2)CC1` [compound 14], in data set [1], the “Enzyme activity pIC50” value is given as below 5. With `O=C(NO)c1cnc(N2CCC(Cn3c(-c4ccccc4)nc4ccccc4c3=O)CC2)nc1` [Co. No. 10], in data set [1], the “Enzyme activity pIC50” value stood at 7.427. Moreover, the IC50 in data set [2] is 658 nM. Consider `O=C(NO)c1ccc(N2CCN(Cc3ccc4c(c3)OCO4)CC2)c([N+](=O)[O-])c1` [compound 22], for which the “Enzyme activity pIC50” value in data set [1] is listed as above 5. In the case of `O=C(NO)c1cc([N+](=O)[O-])ccc1N1CCN(c2ccccc2Cl)CC1` [compound 13], the “Enzyme activity pIC50” value in data set [1] is below 5. The same measure, in the same setting: with `O=C(NO)c1ccc(N2CCN(c3ccc(C(F)(F)F)cn3)CC2)c([N+](=O)[O-])c1` [compound 25] the figure was 5. Still for that read-out and setting: with `O=C(NO)c1ccc(N2CCN(c3cccc(C(F)(F)F)c3)CC2)c([N+](=O)[O-])c1` [compound 19] the figure was above 5. Same read-out and setting: with `O=C(NO)c1ccc(N2CCC(Cc3ccccc3)CC2)c([N+](=O)[O-])c1` [compound 27] the figure was below 5. For `COc1cc2c(=O)n(CC3CCN(c4ncc(C(=O)NO)cn4)CC3)c(C)nc2c(OC)c1OC` [Co. No. 8], the “Enzyme activity pIC50” value in data set [1] turned out to be 7.365. The IC50 in data set [2] was 372 nM. Take `O=C(NO)c1ccc(N2CCN(C3CCCCC3)CC2)c([N+](=O)[O-])c1` [compound 16]: the “Enzyme activity pIC50” value in data set [1] came to 5.698.

Consider `CCC(C)n1nc(C)n(-c2ccc(N3CCCN(c4ccc(C(=O)NO)cc4)CC3)cc2)c1=O` (centres unmarked) (hydrate or solvate) [Co. No. 1], for which the melting point lay within 182 to 184 °C.

As for `O=C(NO)c1ccc(N2CCN(c3ccccc3F)CC2)c([N+](=O)[O-])c1` [compound 23], the “Enzyme activity pIC50” value in data set [1] is above 5. Consider `Cc1nc2ccccc2c(=O)n1CC1CCN(c2ncc(C(=O)NO)cn2)CC1` [compound 51], for which, in data set [1], the “Enzyme activity pIC50” value is 7.561. Besides, in data set [2], the IC50 was 1180 nM. As to `O=C(NO)c1ccc(N2CCN(c3ncccn3)CC2)c([N+](=O)[O-])c1` [compound 21], in data set [1], the “Enzyme activity pIC50” value is reported as 5.

For the molecule `O=C(NO)c1ccc(N2CCN(CCCC(c3ccc(F)cc3)c3ccc(F)cc3)CC2)c([N+](=O)[O-])c1` [compound 12], the “Enzyme activity pIC50” value in data set [1] is given as above 5. The molecule `O=C(NO)c1cnc(N2CCN(Cc3ccc(-c4ccc(CO)cc4)o3)CC2)nc1` [Co. No. 5] gave a melting point of 219 °C. In data set [1], the “Enzyme activity pIC50” value is 8.035. The IC50 in data set [2] was 153 nM. Also, the solubility in data set [3] is above 454 µM. Consider `COc1ccccc1N1CCN(c2ccc(C(=O)NO)cc2[N+](=O)[O-])CC1` [compound 15], for which the “Enzyme activity pIC50” value in data set [1] was above 5. Still for that read-out and setting: with `O=C(NO)c1ccc(N2CCN(c3cccc(Cl)c3)CC2)c([N+](=O)[O-])c1` [compound 11] the figure was below 5; with `O=C(NO)c1ccc(N2CCN(c3ccccn3)CC2)c([N+](=O)[O-])c1` [compound 18], above 5. `O=C(NO)c1cccc(CN2CCN(c3cccc4ccccc34)CC2)c1` [compound 49]: the “Enzyme activity pIC50” value in data set [1] was below 5. Also, the solubility in data set [3] fell in the range of 75.8 to 454 µM (≈ 27.4 to 164 µg/mL). As to `O=C(NO)c1cnc(N2CCC(Cn3c(-c4cccnc4Oc4ccccc4)nc4cccc(F)c4c3=O)CC2)nc1` [compound 53], in data set [1], the “Enzyme activity pIC50” value was determined as 7.295.
